Read-outs that look alike come from different tables or passages of the source.
Assays:
[1] = tested on: Caenorhabditis elegans (Bristol N2); test: C. elegans larval development and growth assay; conditions: Caenorhabditis elegans, read-out: LEC EXT: lowest effect concentration for extinction, a measure of nematode size
hNSC = test: MMP assay in human neural stem cells (hNSC); assay type: cell-based; conditions: Homo sapiens, Neural stem cell, 1 h, read-out: hNSC IC50 (MMP)
[2] = tested on: Caenorhabditis elegans strain PE255; conditions: PE255 [sur-5::luc+::gfp; rol-6(su1006)], Caenorhabditis elegans, in vivo
HepG2 cells [3] = conditions: cited from earlier work; for IC50: read-out: MMP assays IC50 (µM) qHTS-HepG2
[4] = tested on: Nrf2/ARE (ARE-bla HepG2 cells); test: ARE β-lactamase reporter gene assay; assay type: cell-based, human; conditions: Homo sapiens, read-out: ARE (HepG2) EC50
[5] = tested on: Caenorhabditis elegans (Bristol N2); conditions: Bristol N2 (wild type), Caenorhabditis elegans, in vivo
rat primary hepatocytes [6] = test: MMP assay in rat primary hepatocytes; conditions: Rattus norvegicus, Hepatocyte
HepG2 cells [7] = test: ROS-Glo hydrogen peroxide (ROS) assay; assay type: cell-based, human; conditions: Homo sapiens, HepG2, 2 h, read-out: ROS (HepG2) EC50
[8] = tested on: isolated rat liver mitochondria; test: Oxygen consumption, Clark-type oxygen electrode; assay type: biochemical
[9] = tested on: HeLa cells expressing YFP-Parkin; test: Parkin translocation assay; assay type: cell-based, human
rat primary hepatocytes [10] = tested on: rat primary hepatocytes
HepG2 cells [11] = test: Intracellular ATP content (cell viability) assay; assay type: cell-based, human; conditions: Homo sapiens, HepG2, 40 h
[12] = tested on: Caenorhabditis elegans strain PE255; test: In vivo C. elegans ATP status assay; conditions: Caenorhabditis elegans, read-out: LEC LUM: lowest effect concentration for luminescence, a measure of nematode ATP content
HepG2 cells [13] = test: cells; conditions: Homo sapiens; for Emax: HepG2, read-out: MMP assays efficacy (%) HepG2
[14] = tested on: p53 (p53-bla HCT-116 cells); test: p53 β-lactamase reporter gene assay; assay type: cell-based, human; conditions: 16 h incubation; mean±SD of three experiments
[15] = 1 h, read-out: Rat hepatocytes IC50 (MMP)
[16] = read-out: MMP assays IC50 (µM) Rat Hepatocytes
[17] = read-out: ATP (HepG2, galactose) IC50
[18] = read-out: ATP (HepG2, glucose) IC50
[19] = HepG2, 1 h, read-out: HepG2 IC50 Galactose (MMP)
[20] = HepG2, 1 h, read-out: HepG2 IC50 Glucose (MMP)
[21] = HepG2, read-out: MMP assays IC50 (µM) HepG2

CC(C)(C)c1cc([N+](=O)[O-])cc([N+](=O)[O-])c1O [Dinoterb]
minimal effective concentration [1]: 5 µM | IC50 (hNSC): 10.1 µM | LEC (lowest effect concentration), ATP assay [2]: < 10 µM | inhibitory effect at (concentration) on ATP content in the C. elegans assay [2]: 1.0 µM | MMP assays efficacy (%) qHTS-HepG2 (HepG2 cells [3]): -95±8% | IC50 (HepG2 cells [3]): 0.48 µM | EC50 ([4]; HepG2, 16 h incubation, mean±SD of three experiments): 0.52 ± 0.15 µM | LEC (lowest effect concentration), larval growth assay [5]: < 10 µM | IC50 (rat primary hepatocytes [6]; [15]): 2.39 µM | IC50 (rat primary hepatocytes [6]; [16]): 0.76 ± 0.45 µM | EC50 (HepG2 cells [7]): 13.2 µM | Potential Mechanism [8]: Uncoupler at low concentrations (0.032-0.8 µM), and Uncoupler + inhibitor at high concentrations (4-100 µM) | effect on mitochondrial respiration (in words) [8]: effects similar to those of FCCP | uncoupler effect at (concentration) in the oxygen consumption assay [8]: 0.032 µM | I-ADP, % of control (O2 consumption rate) ([8]; 0.0064 µM): 103 (38.3) % of control | I-sub, % of control (O2 consumption rate) ([8]; 0.0064 µM): 92 (9.9) % of control | II-ADP, % of control (O2 consumption rate) ([8]; 0.0064 µM): 105 (66) % of control | II-sub, % of control (O2 consumption rate) ([8]; 0.0064 µM): 99 (18.4) % of control | I-ADP, % of control (O2 consumption rate) ([8]; 0.032 µM): 95 (41.5) % of control | I-sub, % of control (O2 consumption rate) ([8]; 0.032 µM): 135 (17.7) % of control | II-ADP, % of control (O2 consumption rate) ([8]; 0.032 µM): 97 (65.4) % of control | I-ADP, % of control (O2 consumption rate) ([8]; 0.16 µM): 113 (49.2) % of control | I-sub, % of control (O2 consumption rate) ([8]; 0.16 µM): 206 (27.0) % of control | II-ADP, % of control (O2 consumption rate) ([8]; 0.16 µM): 106 (72.0) % of control | II-sub, % of control (O2 consumption rate) ([8]; 0.16 µM): 264 (55.1) % of control | I-ADP, % of control (O2 consumption rate) ([8]; 0.8 µM): 148 (64.4) % of control | I-sub, % of control (O2 consumption rate) ([8]; 0.8 µM): 486 (63.7) % of control | II-ADP, % of control (O2 consumption rate) ([8]; 0.8 µM): 102 (68.8) % of control | II-sub, % of control (O2 consumption rate) ([8]; 0.8 µM): 367 (76.8) % of control | I-ADP, % of control (O2 consumption rate) ([8]; 4 µM): 100 (43.7) % of control | I-sub, % of control (O2 consumption rate) ([8]; 4 µM): 320 (41.9) % of control | II-ADP, % of control (O2 consumption rate) ([8]; 4 µM): 58 (39.5) % of control | II-sub, % of control (O2 consumption rate) ([8]; 4 µM): 211 (44.0) % of control | I-ADP, % of control (O2 consumption rate) ([8]; 20 µM): 69 (30.1) % of control | I-sub, % of control (O2 consumption rate) ([8]; 20 µM): 239 (31.3) % of control | II-ADP, % of control (O2 consumption rate) ([8]; 20 µM): 11 (7.7) % of control | II-sub, % of control (O2 consumption rate) ([8]; 20 µM): 36 (7.6) % of control | I-ADP, % of control (O2 consumption rate) ([8]; 100 µM): 10 (4.9) % of control | I-sub, % of control (O2 consumption rate) ([8]; 100 µM): 23 (5.0) % of control | II-ADP, % of control (O2 consumption rate) ([8]; 100 µM): 5 (3.1) % of control | II-sub, % of control (O2 consumption rate) ([8]; 100 µM): 13 (4.4) % of control | Parkin recruitment [9]: Active | Parkin translocation into mitochondria (in words) ([9]; 3 h): patterns similar to antimycin A and FCCP | MMP assays efficacy (%) Rat Hepatocytes (rat primary hepatocytes [10]): -88±9% | Rat hepatocytes (efficacy) (MMP) (rat primary hepatocytes [10]): 2.39±1.02 ( −105±23.8 ) % | IC50 (HepG2 cells [11]; [17]): 22.3 µM | IC50 (HepG2 cells [11]; [18]): 19.7 µM | minimal effective concentration [12]: 1 µM | IC50 (HepG2 cells [13]; [19]): 7.19 µM | IC50 (HepG2 cells [13]; [20]): 7.23 µM | IC50 (HepG2 cells [13]; [21]): 2.24 µM | Emax (HepG2 cells [13]): 101%

O=C1c2c(O)ccc([N+](=O)[O-])c2C(=O)c2c([N+](=O)[O-])ccc(O)c21 [1,8-Dihydroxy-4,5-dinitroanthraquinone]
minimal effective concentration [1]: 75 µM | IC50 (hNSC): 3 µM | LEC (lowest effect concentration), ATP assay [2]: ≤ 10 µM | MMP assays efficacy (%) qHTS-HepG2 (HepG2 cells [3]): -86±5% | IC50 (HepG2 cells [3]): 0.07 ± 0.04 µM | EC50 ([4]; HepG2, 16 h): 2.43 ± 1.38 µM | IC50 (rat primary hepatocytes [6]; [15]): 16.1 µM | IC50 (rat primary hepatocytes [6]; [16]): 5.69 ± 2.62 µM | p53 (HCT-116) EC50 [14]: Inactive | EC50 (HepG2 cells [7]): 34.3 µM | Potential Mechanism [8]: Uncoupler at low concentrations (0.8 - 4µM), and uncoupler + inhibitor at high concentrations (20-100 µM) | I-ADP, % of control (O2 consumption rate) ([8]; 0.16 µM): 106 (52.0) % of control | I-sub, % of control (O2 consumption rate) ([8]; 0.16 µM): 104 (16.8) % of control | II-ADP, % of control (O2 consumption rate) ([8]; 0.16 µM): 98 (75.7) % of control | II-sub, % of control (O2 consumption rate) ([8]; 0.16 µM): 98 (29.9) % of control | I-ADP, % of control (O2 consumption rate) ([8]; 0.8 µM): 102 (50.0) % of control | I-sub, % of control (O2 consumption rate) ([8]; 0.8 µM): 139 (22.3) % of control | II-ADP, % of control (O2 consumption rate) ([8]; 0.8 µM): 102 (78.8) % of control | II-sub, % of control (O2 consumption rate) ([8]; 0.8 µM): 132 (40.5) % of control | I-ADP, % of control (O2 consumption rate) ([8]; 4 µM): 119 (58.8) % of control | I-sub, % of control (O2 consumption rate) ([8]; 4 µM): 327 (52.6) % of control | II-ADP, % of control (O2 consumption rate) ([8]; 4 µM): 104 (80.3) % of control | II-sub, % of control (O2 consumption rate) ([8]; 4 µM): 206 (63.1) % of control | I-ADP, % of control (O2 consumption rate) ([8]; 20 µM): 95 (47.0) % of control | I-sub, % of control (O2 consumption rate) ([8]; 20 µM): 311 (50.0) % of control | II-ADP, % of control (O2 consumption rate) ([8]; 20 µM): 40 (30.9) % of control | II-sub, % of control (O2 consumption rate) ([8]; 20 µM): 108 (33.0) % of control | I-ADP, % of control (O2 consumption rate) ([8]; 100 µM): 35 (10.0) % of control | I-sub, % of control (O2 consumption rate) ([8]; 100 µM): 84 (10.0) % of control | II-ADP, % of control (O2 consumption rate) ([8]; 100 µM): 49 (17.8) % of control | II-sub, % of control (O2 consumption rate) ([8]; 100 µM): 141 (20.8) % of control | Parkin recruitment [9]: Inactive | MMP assays efficacy (%) Rat Hepatocytes (rat primary hepatocytes [10]): -79±33% | Rat hepatocytes (efficacy) (MMP) (rat primary hepatocytes [10]): 16.09±6.94 ( −119±28.1 ) % | IC50 (HepG2 cells [11]; [17]): 17 µM | IC50 (HepG2 cells [11]; [18]): 27 µM | minimal effective concentration [12]: 10 µM | IC50 (HepG2 cells [13]; [19]): 2.81 µM | IC50 (HepG2 cells [13]; [20]): 1.79 µM | IC50 (HepG2 cells [13]; [21]): 0.45 µM | Emax (HepG2 cells [13]): 86%

From article PMC6112376, “Comprehensive Analyses and Prioritization of Tox21 10K Chemicals Affecting Mitochondrial Function by in-Depth Mechanistic Studies” (Environmental Health Perspectives, 2018)
